Measured values as given in patent US20080004311A1, “HISTONE DEACETYLASE INHIBITORS FOR TREATING DEGENERATIVE DISEASES OF THE EYE” (ALCON, INC., priority 2002, published 2008).

Test system: cultured adult rat retinal ganglion cells (RGC)
Experiment: Survival of cultured adult rat retinal ganglion cells (RGC), Thy-1-positive healthy cell count
Assay type: cell-based
Conditions: Thy-1-positive healthy cells counted; for RGC survival against trophic factor withdrawal (TFW)-induced toxicity: bFGF, BDNF and CNTF removed from medium, cultured with compound for 3 days; for RGC survival against TNFα-induced toxicity / RGC survival against glutamate-induced toxicity: pre-treated 30 minutes; for RGC survival against TNFα-induced toxicity: then 10 ng/mL TNFα for 3 days; for RGC survival against glutamate-induced toxicity: then 100 μM glutamate for 3 days
Description: Culture of rat retinal ganglion cells (RGC) was performed as described in Pang et al. (Pang et al., 2007, BMC Neuroscience 8:11). Adult Sprague-Dawley rats were briefly euthanized by CO2 asphyxiation. Their eyes were enucleated and placed in the Neurobasal medium. The retina from each eye was detached and isolated. Retinal cells were dissociated by combining up to 20 retinas with 5 mL of papain solution, containing 10 mg papain, 2 mg DL-cysteine, and 2 mg bovine serum albumin in 5 ml of Neurobasal medium, for 25 min at 37° C., then washed 3 times with 5 mL RGC medium (Neurobasal medium with various nutrient supplements)+1% fetal calf serum. Retinal pieces were triturated by passing through a fire-polished disposable pipette several times until cells were dispersed. Cell suspension was placed onto of the poly-D-lysine- and laminin-coated 8-well chambered culture slide. The cells were then cultured in 95% air/5% CO2 at 37° C.
For glutamate-induced toxicity studies, cells were pre-treated with vehicle (cell media plus 0.1% DMSO) or the indicated compounds for 30 minutes, followed by 100 μM glutamate for 3 days. For TNFα-induced toxicity studies, cells were pre-treated with vehicle or the indicated compounds for 30 minutes, followed by 10 ng/mL TNFα for 3 days. For s trophic factor withdrawal (TFW) studies, three trophic factors, basic fibroblast growth factor, brain-derived neurotrophic factor, and ciliary neurotrophic factor, were removed from the culture medium. Cells were cultured in this medium with the indicated compounds for 3 days.
At the end of the incubation period, the cells were fixed and labeled for Thy-1, a RGC marker, by immunocytochemistry. Cell survival was quantified by manually counting Thy-1-positive healthy cells in each well. As shown by the data in FIGS. 1, 2, and 3, APHA-8 (Sigma, St. Louis, Mo.) and Scriptaid™ (Sigma, St. Louis, Mo.) were protective against glutamate-, tumor necrosis factor-alpha (TNFα)-, and trophic factor withdrawal (TFW)-induced toxicity.

Cn1cc(C(=O)Cc2ccccc2)cc1C=CC(=O)NO [APHA-8, 3-(1-methyl-4-phenlyacetyl-1H-2-pyrrolyl)-N-hydroxy-2-propenamide]
protective: RGC survival against trophic factor withdrawal (TFW)-induced toxicity | RGC survival against TNFα-induced toxicity | RGC survival against glutamate-induced toxicity

O=C(CCCCCN1C(=O)c2cccc3cccc(c23)C1=O)NO [Scriptaid™, 6-(1,3-Dioxo-1H, 3H-benzo[de]isoquinolin-2-yl)-hexanoic acid hydroxyamide]
protective: RGC survival against trophic factor withdrawal (TFW)-induced toxicity | RGC survival against TNFα-induced toxicity | RGC survival against glutamate-induced toxicity
